Measured values: US20260357306A1, “ONE-POT FERMENTATIVE PRODUCTION OF GLYCOLATE OR OTHER HYDROXYCARBOXYLIC ACIDS” (PHYCUS BIOTECHNOLOGIES INC., priority 2023, published 2026)
Blank lines part the entries; values can stand above or below the molecule they belong to.

Tests used:
[1] = molecular target: T1, Pseudomonas putida aldehyde dehydrogenase ppuALDH, SEQ ID NO: 267 (Pseudomonas putida, UniProt Q88K06); assay: Aldehyde dehydrogenase (glycolaldehyde to glycolic acid) kinetics, ppuALDH; type: biochemical
T1 sequence (Q88K06 1-503): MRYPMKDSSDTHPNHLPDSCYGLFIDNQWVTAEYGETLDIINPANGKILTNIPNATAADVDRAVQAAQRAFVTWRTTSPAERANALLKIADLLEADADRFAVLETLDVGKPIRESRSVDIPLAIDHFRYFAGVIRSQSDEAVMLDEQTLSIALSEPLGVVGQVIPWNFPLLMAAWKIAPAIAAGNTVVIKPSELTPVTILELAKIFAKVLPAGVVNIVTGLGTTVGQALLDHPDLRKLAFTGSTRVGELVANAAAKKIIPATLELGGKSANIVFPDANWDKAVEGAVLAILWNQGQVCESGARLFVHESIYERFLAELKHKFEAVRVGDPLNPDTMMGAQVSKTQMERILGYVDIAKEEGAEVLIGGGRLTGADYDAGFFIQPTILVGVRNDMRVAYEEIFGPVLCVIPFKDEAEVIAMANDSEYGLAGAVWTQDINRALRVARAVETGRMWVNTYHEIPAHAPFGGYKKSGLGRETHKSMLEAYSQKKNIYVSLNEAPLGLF
Text: (§1) Enzyme expression and purification: The enzymes of interest were genetically engineered in the E. coli BL21 (DE3) strain on a high copy plasmid under control of the T7 promoter. The enzymes were tagged with a hexahistidine (His-tag) sequence to facilitate for purification. Post-expression, the His-tagged enzymes were selectively bound to a nickel-charged immobilized metal affinity chromatography (IMAC) resin, exploiting the high affinity between histidine residues and nickel ions. Upon washing away non-specifically bound proteins, the His-tagged enzymes were eluted with an imidazole-containing buffer and subsequently used for enzymatic assays.
Enzyme assays: Standard enzyme characterization protocols were performed to determine the activities of the enzymes. Dehydrogenase activity against the substrates was determined using a continuous assay following the increase in absorbance at 340 nm ε340 (NADH)=6.22 mM^−1. cm^−1, and ε340 (NADPH)=6.2 mM^−1·cm^−1]. Substrate screens were performed at 30 °C in a reaction mixture (200 μL) containing 50 mM of substrate in 100 mM Tris-HCl (pH 8.5), 1 mM NAD^+, 1 mM substrate, and 10 μg of purified protein. […]
A second enzymatic step in the processes described herein relate to the conversion of an aliphatic polyhydric aldehyde substrate (e.g., glycolaldehyde) to a corresponding alpha-hydroxy acid (e.g., glycolic acid). […] In order to identify potentially higher-performing enzymes for industrial use capable of converting glycolaldehyde to glycolic acid, we evaluated a plurality of candidates based on either close, medium, or distant phylogeny to ecoALDH (SEQ ID NO: 265). A subset of candidate enzymes were cloned, expressed, and purified, along with ecoALDH as a control, as described in Example 8.1, and their in vitro enzymatic activities were measured in a reaction mixture consisting of 50 mM glycolaldehyde in 100 mM Tris-HCl buffer (pH 8.5). The reaction was initiated by the addition of the purified enzyme, and activity was measured by monitoring the formation of glycolic acid over time. […]

[2] = molecular target: T2, Escherichia coli aldehyde dehydrogenase ecoALDH (aldA), SEQ ID NO: 265 (Escherichia coli, UniProt P25553); assay: Aldehyde dehydrogenase (glycolaldehyde to glycolic acid) kinetics, ecoALDH; type: biochemical
T2 construct: made in house; host or cells: E. coli BL21 (DE3)
T2 sequence (P25553 1-479): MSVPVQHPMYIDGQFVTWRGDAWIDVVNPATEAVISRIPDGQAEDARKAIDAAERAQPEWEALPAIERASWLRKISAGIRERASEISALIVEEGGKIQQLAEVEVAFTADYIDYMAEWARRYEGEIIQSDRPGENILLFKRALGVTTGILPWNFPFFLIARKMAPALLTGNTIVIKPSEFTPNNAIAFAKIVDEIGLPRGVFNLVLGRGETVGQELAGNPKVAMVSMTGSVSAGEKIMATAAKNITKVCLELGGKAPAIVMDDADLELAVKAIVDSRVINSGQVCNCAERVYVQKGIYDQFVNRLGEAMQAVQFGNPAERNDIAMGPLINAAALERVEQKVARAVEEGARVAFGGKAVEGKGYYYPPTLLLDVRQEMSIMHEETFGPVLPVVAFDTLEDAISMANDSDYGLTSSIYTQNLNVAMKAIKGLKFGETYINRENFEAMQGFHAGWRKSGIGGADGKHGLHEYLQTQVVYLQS
Text: as §1
(§2) Enzyme assays: Standard enzyme characterization protocols were performed to determine the activities of the enzymes. Dehydrogenase activity against the substrates was determined using a continuous assay following the increase in absorbance at 340 nm ε340 (NADH)=6.22 mM^−1. cm^−1, and ε340 (NADPH)=6.2 mM^−1·cm^−1]. […]
A second enzymatic step in the processes described herein relate to the conversion of an aliphatic polyhydric aldehyde substrate (e.g., glycolaldehyde) to a corresponding alpha-hydroxy acid (e.g., glycolic acid). […] The reaction was initiated by the addition of the purified enzyme, and activity was measured by monitoring the formation of glycolic acid over time. […]

[3] = tested on: Gluconobacter oxydans zinc-dependent medium-chain alcohol dehydrogenase Gox0313, SEQ ID NO: 206; settings: role: substrate, Zhang et al., 2015, cited from earlier work
[4] = molecular target: T3, Azotobacter vinelandii aldehyde dehydrogenase aviALDH, SEQ ID NO: 266 (Azotobacter vinelandii, UniProt C1DMY3); assay: Aldehyde dehydrogenase (glycolaldehyde to glycolic acid) kinetics, aviALDH; type: biochemical
T3 sequence (C1DMY3 1-477): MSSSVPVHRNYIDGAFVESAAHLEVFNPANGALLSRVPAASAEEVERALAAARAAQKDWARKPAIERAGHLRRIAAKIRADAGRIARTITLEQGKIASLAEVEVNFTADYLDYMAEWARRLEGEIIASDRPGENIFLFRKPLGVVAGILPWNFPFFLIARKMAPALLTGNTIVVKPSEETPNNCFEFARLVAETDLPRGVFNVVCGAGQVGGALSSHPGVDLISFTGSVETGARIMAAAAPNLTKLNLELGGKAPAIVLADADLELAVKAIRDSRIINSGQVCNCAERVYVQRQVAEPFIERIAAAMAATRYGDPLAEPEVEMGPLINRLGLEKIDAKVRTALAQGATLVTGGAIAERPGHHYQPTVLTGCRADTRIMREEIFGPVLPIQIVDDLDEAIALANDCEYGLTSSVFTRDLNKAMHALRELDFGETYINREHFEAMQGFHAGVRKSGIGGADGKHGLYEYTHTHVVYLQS
Text: as §1
Enzyme assays: Standard enzyme characterization protocols were performed to determine the activities of the enzymes. Dehydrogenase activity against the substrates was determined using a continuous assay following the increase in absorbance at 340 nm ε340 (NADH)=6.22 mM^−1. cm^−1, and ε340 (NADPH)=6.2 mM^−1·cm^−1]. Substrate screens were performed at 30 °C in a reaction mixture (200 μL) containing 50 mM of substrate in 100 mM Tris-HCl (pH 8.5), 1 mM NAD^+, 1 mM substrate, and 10 μg of purified protein. Initial velocity patterns of the enzymatic reaction were obtained by varying the concentrations of ethylene glycol at fixed concentrations of enzyme concentration in the presence of the saturating NAD concentrations.
A second enzymatic step in the processes described herein relate to the conversion of an aliphatic polyhydric aldehyde substrate (e.g., glycolaldehyde) to a corresponding alpha-hydroxy acid (e.g., glycolic acid). E. coli aldehyde dehydrogenase aldA (ecoALDH) has been reported to catalyze the intracellular enzymatic conversion of glycolaldehyde (GA) to glycolic acid (e.g., Wada et al. 2005; Morishige et al., 2007; Pandit et al., 2019; Pandit et al., 2021). In order to identify potentially higher-performing enzymes for industrial use capable of converting glycolaldehyde to glycolic acid, we evaluated a plurality of candidates based on either close, medium, or distant phylogeny to ecoALDH (SEQ ID NO: 265). A subset of candidate enzymes were cloned, expressed, and purified, along with ecoALDH as a control, as described in Example 8.1, and their in vitro enzymatic activities were measured in a reaction mixture consisting of 50 mM glycolaldehyde in 100 mM Tris-HCl buffer (pH 8.5). The reaction was initiated by the addition of the purified enzyme, and activity was measured by monitoring the formation of glycolic acid over time. […]

[5] = substrate: OCCO; assay: Alcohol dehydrogenase (EG oxidation) Michaelis-Menten kinetics, gmoADH; type: biochemical, Gluconobacter morbifer; settings: other: role: substrate, 100 mM Tris-HCl pH 8.5, 30 °C, saturating NAD, EG 1-100 mM
Text: as §1, §2
(§3) The candidate alcohol dehydrogenase enzymes were next characterized for their enzymatic activity. […] Reactions were initiated by the addition of the purified enzyme and enzymatic activity was measured by monitoring the formation of the product (glycolaldehyde) over time as described in Example 8.1. […]

[6] = substrate: OCCO; assay: Alcohol dehydrogenase (EG oxidation) Michaelis-Menten kinetics, goxADH; type: biochemical, Gluconobacter oxydans; settings: other: role: substrate, 100 mM Tris-HCl pH 8.5, 30 °C, saturating NAD, EG 1-100 mM
Text: as §1, §2, §3

[7] = substrate: OCCO; assay: Alcohol dehydrogenase (EG oxidation) Michaelis-Menten kinetics, gdiADH; type: biochemical, Gluconobacter diazotrophicus; settings: other: role: substrate, 100 mM Tris-HCl pH 8.5, 30 °C, saturating NAD, EG 1-100 mM
Text: as §1, §2, §3

[8] = role: inhibitor, substrate inhibition, relative to ecoALDH
[9] = role: substrate, relative to ecoALDH
[10] = role: substrate, versus ecoALDH

Relative KI [1, 8]: 1.3
Relative kcat [1, 9]: 5.8
catalytic turnover rate, fold higher than ecoALDH [1, 10]: 5.8 fold
Relative KI ([2]; role: inhibitor, substrate inhibition): 1.0
Relative kcat ([2]; role: substrate): 1.0
resistance to substrate inhibition, fold higher than ecoALDH ([4]; role: inhibitor, glycolaldehyde substrate inhibition, versus ecoALDH): 5.6 fold
Relative KI [4, 8]: 5.6
Relative kcat [4, 9]: 5.3
catalytic turnover rate, fold higher than ecoALDH [4, 10]: 5.3 fold
Molecule: O=CCO [glycolaldehyde]
turnover and catalytic efficiency for glycolaldehyde as a substrate ([3]; compared to ethylene glycol): higher turnover and catalytic efficiency
affinity and catalytic rate for glycolaldehyde reduction to ethylene glycol ([3]; compared to the oxidation of ethylene glycol): higher affinity and catalytic rate

B1: Gluconobacter morbifer alcohol dehydrogenase gmoADH, SEQ ID NO: 207 (Gluconobacter morbifer G707) (protein)
chain: MADTMQAAVVREFGKPLSIERVPVPEIRPNQILVKVETCGVCHTDLHAARGDWPTKPNPPFIPGHEGVGRIVALGSQVGDFVKVGDRVGVPWLYSACGHCEHCLGGWETLCEKQEDTGYSVNGCFAEYVAADPNYVAHLPENIDPLETSPVLCAGLTVYKGLKMTEARPGQWVAVSGIGGLGQMAVQYAVAMGMNVVAVDIDDGKLETAKKLGAVLTVNAKDRDPAKFVQQEIGGAHGALVTAVGRTAFAQAMGYARRGGTIVLNGLPPGDFPISIFDMVMNGTTVRGSIVGTRLDMIEALDFFARGKVKSVVTADKLENINTIFDNLQNGRLAGRTVLDFRS
Km [5]: 200 ± 44 μM EG
Vmax [5]: 4.9 ± 0.8 µmol/min/mg

B2: Gluconobacter oxydans alcohol dehydrogenase goxADH (Gox0313), SEQ ID NO: 206 (Gluconobacter oxydans 621H) (protein)
chain: MADTMLAAVVREFGKPLSIERLPIPDIKPHQILVKVDTCGVCHTDLHAARGDWPSKPNPPFIPGHEGVGHIVAVGSQVGDFVKTGDVVGVPWLYSACGHCEHCLGGWETLCEKQDDTGYTVNGCFAEYVVADPNYVAHLPSTIDPLQASPVLCAGLTVYKGLKMTEARPGQWVAVSGVGGLGQMAVQYAVAMGMNVVAVDIDDEKLATAKKLGASLTVNAKDTDPARFIQQQIGGAHGALVTAVGRTAFSQAMGYARRGGTIVLNGLPPGDFPVSIFDMVMNGTTIRGSIVGTRLDMIEAMDFFARGKVKSVVTPGKLENINTIFDDLQNGRLEGRTVLDFRS
Vmax [6]: 2.0 ± 0.1 µmol/min/mg

B3: Gluconobacter diazotrophicus alcohol dehydrogenase gdiADH, SEQ ID NO: 208 (Gluconacetobacter diazotrophicus PA1 5) (protein)
chain: MRSADTILGGTSMTGKMKAAVVREFGKPLTIEELDIPSIRPDQILVKMDACGVCHTDLHAARGDWPVKPNPPFIPGHEGVGHVVSVGSAVKWVKLGDVVGVPWLYSACGHCEHCLGGWETLCASQDDTGYTVNGCFAEYVVADPSYVAHLPKTIDPLQVAPVLCAGLTVYKGLKMTDTKPGDWVAVSGVGGLGQMAVQYGVAMGMNVIAVDIDDEKLATAKALGAALTVNARATDPAPFIQSQVGGAHGALVTAVSRSAFSQAMGFARRGGTIVLNGLPPGEFPISIFDMVMAGTTVRGSIVGTRLDMIEAVSFFADGKVKTVIEPDRLENINQIFTDLEEGKIQGRKVLDFRQ
Km [7]: 230 ± 87 μM EG
Vmax [7]: 7.5 ± 2.1 µmol/min/mg
